Active and inactive are the calls of the source. Cut-off read from the data, not from the text of the source: actives have a measured IC50 and inactives only a lower limit.
target: Envelope glycoprotein gp160 (Human immunodeficiency virus 1, UniProt Q6QLK5); assay: inhibitors of HIV fusion peptide binding, primary screen, biochemical, uHTS, fluorescence dequenching (AID 1986)
Sequence (Q6QLK5 whole entry, the tested form may be a part): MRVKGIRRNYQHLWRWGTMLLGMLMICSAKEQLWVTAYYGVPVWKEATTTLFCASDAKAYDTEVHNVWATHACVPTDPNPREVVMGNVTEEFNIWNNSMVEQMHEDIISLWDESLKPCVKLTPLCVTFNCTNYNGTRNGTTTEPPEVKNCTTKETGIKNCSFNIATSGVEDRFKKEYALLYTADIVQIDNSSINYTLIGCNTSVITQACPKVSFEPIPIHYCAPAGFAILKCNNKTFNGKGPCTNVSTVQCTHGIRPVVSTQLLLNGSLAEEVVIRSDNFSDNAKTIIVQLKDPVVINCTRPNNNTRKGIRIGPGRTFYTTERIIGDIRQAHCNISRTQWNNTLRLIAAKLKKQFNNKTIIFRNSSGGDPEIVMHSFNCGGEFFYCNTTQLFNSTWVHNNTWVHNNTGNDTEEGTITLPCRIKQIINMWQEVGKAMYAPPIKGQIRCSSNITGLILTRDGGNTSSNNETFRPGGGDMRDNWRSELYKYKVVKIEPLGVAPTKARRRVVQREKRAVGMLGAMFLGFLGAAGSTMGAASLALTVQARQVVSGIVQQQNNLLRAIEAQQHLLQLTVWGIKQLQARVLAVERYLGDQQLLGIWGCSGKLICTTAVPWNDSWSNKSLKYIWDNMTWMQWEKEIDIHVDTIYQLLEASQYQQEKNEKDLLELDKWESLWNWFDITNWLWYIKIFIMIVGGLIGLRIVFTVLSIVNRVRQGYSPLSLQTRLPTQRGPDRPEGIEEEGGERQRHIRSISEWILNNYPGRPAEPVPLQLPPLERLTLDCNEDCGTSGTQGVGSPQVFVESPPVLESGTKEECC

SMILES	IC50
O=C(COc1ccc(Cl)cc1Cl)Nc1ccc(C(=O)Nc2ccccc2C(=O)O)cc1	9.54 µM (active)
COc1cc(NS(=O)(=O)c2ccc(NC(=S)NC(=O)c3sc4ccccc4c3Cl)cc2)nc(OC)n1	16.5 µM (active)
CC(C)S(=O)(=O)C1=NSC2=NC(=O)/C(=C\c3ccc(-c4cccc(C(=O)O)c4)o3)C(=N)N21	18.3 µM (active)
CCCCCC#CCC#CCC#CCC#CCCCC(=O)O	11.9 µM (active)
